System: ZIKV
Experiment: ZIKV reporter virus-based antiviral screening on Huh7 cells
Format: cell-based, Zika virus
Details: Huh7 cells infected with recombinant luciferase reporter ZIKV (MOI about 0.1), 48 hrs, luciferase signal
Method in brief: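 Huh7 cells in 2% FBS assay medium infected at MOI about 0.1 with Renilla or Nano luciferase ZIKV premixed with nine-point compound dilutions, 48 hrs at 37° C. Luciferase signal normalized to DMSO controls as 100%; viability optionally by CellTiter-Glo with Rlu virus.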

`COC(=O)N[C@H](C(=O)N1[C@H](c2nc(Cl)c(-c3cc4c5c(c3)OCc3cc(-c6[nH]c([C@@H]7C[C@@H]8C[C@@H]8N7C(=O)[C@@H](NC(=O)OC)C(C)C)nc6Cl)cc(c3-5)OC4)[nH]2)C[C@@H]2C[C@@H]21)C(C)C` [Compound 11, dimethyl ((2S,2′S)-((1S,1′S,3S,3′S,5S,5′S)-((5,10-dihydrochromeno[5,4,3-cde]chromene-2,7-diyl)bis(4-chloro-1H-imidazole-5,2-diyl))bis(2-azabicyclo[3.1.0]hexane-3,2-diyl))bis(3-methyl-1-oxobutane-1,2-diyl))dicarbamate] was tested. Which EC50 did it give?
The EC50 was 9.3 nM.

Same assay, conditions: Huh7 cells infected with recombinant luciferase reporter ZIKV (MOI about 0.1), 48 hrs, luciferase signal; read-out: EC50

How did the EC50 turn out when `CC[C@H](C)[C@H](NC(=O)OC)C(=O)N1C[C@@H](C)C[C@H]1c1nc(Cl)c(-c2cc3c4c(c2)OCc2cc(-c5[nH]c([C@@H]6C[C@H](C)CN6C(=O)[C@@H](NC(=O)OC)[C@@H](C)CC)nc5C(C)C)cc(c2-4)OC3)[nH]1` [Compound 73, methyl ((2S,3S)-1-((2S,4S)-2-(5-(7-(4-chloro-2-((2S,4S)-1-((methoxycarbonyl)-1-isoleucyl)-4-methylpyrrolidin-2-yl)-1H-imidazol-5-yl)-5,10-dihydrochromeno[5,4,3-cde]chromen-2-yl)-4-isopropyl-1H-imidazol-2-yl)-4-methylpyrrolidin-1-yl)-3-methyl-1-oxopentan-2-yl)carbamate] was run?
The EC50 was 3.2 nM.

For `COC(=O)N[C@H](C(=O)N1[C@@H](C)CC[C@H]1c1nc(Cl)c(-c2cc3c4c(c2)OCc2cc(-c5[nH]c([C@@H]6CC[C@H](C)N6C(=O)[C@@H](NC(=O)OC)C(C)(C)C(F)(F)F)nc5Cl)cc(c2-4)OC3)[nH]1)C(C)(C)C(F)(F)F` [Compound 34, dimethyl ((2S,2′S)-((2S,2′S,5S,5′S)-((5,10-dihydrochromeno[5,4,3-cde]chromene-2,7-diyl)bis(4-chloro-1H-imidazole-5,2-diyl))bis(2-methylpyrrolidine-5,1-diyl))bis(4,4,4-trifluoro-3,3-dimethyl-1-oxobutane-l,2-diyl))dicarbamate], which EC50 is on record?
Its EC50 is 2.6 nM.

Same assay, conditions: Zika virus, Huh-7, 48 h, Huh7 cells infected with recombinant luciferase reporter ZIKV (MOI about 0.1), luciferase signal

For `COC(=O)N[C@H](C(=O)N1CCC[C@H]1c1nc(Cl)c(-c2cc3c4c(c2)OCc2cc(-c5[nH]c([C@@H]6CCCN6C(=O)[C@@H](NC(=O)OC)c6ccccc6)nc5Cl)cc(c2-4)OC3)[nH]1)c1ccccc1` [Compound 23, dimethyl ((1S,1′S)-((2S,2′S)-((5,10-dihydrochromeno[5,4,3-cde]chromene-2,7-diyl)bis(4-chloro-1H-imidazole-5,2-diyl))bis(pyrrolidine-2,1-diyl))bis(2-oxo-1-phenylethane-2,1-diyl))dicarbamate], which EC50 is on record?
Its EC50 is 52.4 nM.

How did the EC50 turn out when `CCc1nc([C@@H]2CCCN2C(=O)[C@@H](NC(=O)OC)C(C)C)[nH]c1-c1cc2c3c(c1)OCc1cc(-c4[nH]c([C@@H]5CCCN5C(=O)[C@@H](NC(=O)OC)C(C)C)nc4CC)cc(c1-3)OC2` [Compound 18, dimethyl ((2S,2′S)-((2S,2′S)-((5,10-dihydrochromeno[5,4,3-cde]chromene-2,7-diyl)bis(4-ethyl-1H-imidazole-5,2-diyl))bis(pyrrolidine-2,1-diyl))bis(3-methyl-1-oxobutane-1,2-diyl))dicarbamate] was run?
Its EC50 is 255 nM.

With `CC(C)[C@H](NC(=O)C1CC1)C(=O)N1CCC[C@H]1c1nc(Cl)c(-c2cc3c4c(c2)OCc2cc(-c5[nH]c([C@@H]6CCCN6C(=O)[C@@H](NC(=O)C6CC6)C(C)C)nc5Cl)cc(c2-4)OC3)[nH]1` [Compound 25, N,N′-((2S,2′S)-((2S,2′S)-((5,10-dihydrochromeno[5,4,3-cde]chromene-2,7-diyl)bis(4-chloro-1H-imidazole-5,2-diyl))bis(pyrrolidine-2,1-diyl))bis(3-methyl-1-oxobutane-1,2-diyl))dicyclopropanecarboxamide] as the compound, how does the EC50 read?
Its EC50 is 21.9 nM.

With `CC[C@H](C)[C@H](NC(=O)OC)C(=O)N1[C@H](C)CC[C@H]1c1nc(Cl)c(-c2cc3c4c(c2)OCc2cc(-c5[nH]c([C@@H]6CC[C@@H](C)N6C(=O)[C@@H](NC(=O)OC)[C@@H](C)CC)nc5Cl)cc(c2-4)OC3)[nH]1` [Compound 63, dimethyl ((2S,2′S,3S,3′S)-((2R,2′R,5S,5′S)-((5,10-dihydrochromeno[5,4,3-cde]chromene-2,7-diyl)bis(4-chloro-1H-imidazole-5,2-diyl))bis(2-methylpyrrolidine-5,1-diyl))bis(3-methyl-1-oxopentane-1,2-diyl))dicarbamate] as the compound, how does the EC50 read?
The EC50 was 16.4 nM.

For `CC[C@@H](C)[C@H](NC(=O)OC)C(=O)N1[C@@H](C)CC[C@H]1c1nc(Cl)c(-c2cc3c4c(c2)OCc2cc(-c5[nH]c([C@@H]6CC[C@H](C)N6C(=O)[C@@H](NC(=O)OC)[C@H](C)CC)nc5Cl)cc(c2-4)OC3)[nH]1` [Compound 33, dimethyl ((2S,2′S,3R,3′R)-((2S,2′S,5S,5′S)-((5,10-dihydrochromeno[5,4,3-cde]chromene-2,7-diyl)bis(4-chloro-1H-imidazole-5,2-diyl))bis(2-methylpyrrolidine-5,1-diyl))bis(3-methyl-1-oxopentane-1,2-diyl))dicarbamate], which EC50 is on record?
The EC50 was 0.9 nM.

Which EC50 does the source give for `CC[C@H](C)[C@H](NC(=O)OC)C(=O)N1C[C@@H](F)C[C@H]1c1nc(Cl)c(-c2cc3c4c(c2)OCc2cc(-c5[nH]c([C@@H]6C[C@H](F)CN6C(=O)[C@@H](NC(=O)OC)[C@@H](C)CC)nc5Cl)cc(c2-4)OC3)[nH]1` [Compound 51, dimethyl ((2S,2′S,3S,3′S)-((3S,3′S,5S,5′S)-((5,10-dihydrochromeno[5,4,3-cde]chromene-2,7-diyl)bis(4-chloro-1H-imidazole-5,2-diyl))bis(3-fluoropyrrolidine-5,1-diyl))bis(3-methyl-1-oxopentane-1,2-diyl))dicarbamate] here?
The EC50 was 98.8 nM.

With `COC(=O)N[C@H](C(=O)N1C[C@@H](OC)C[C@H]1c1nc(Cl)c(-c2cc3c4c(c2)OCc2cc(-c5[nH]c([C@@H]6C[C@H](OC)CN6C(=O)[C@@H](NC(=O)OC)C(C)(C)C(F)(F)F)nc5Cl)cc(c2-4)OC3)[nH]1)C(C)(C)C(F)(F)F` [Compound 6, dimethyl ((2S,2′S)-((3S,3′S,5S,5′S)-((5,10-dihydrochromeno[5,4,3-cde]chromene-2,7-diyl)bis(4-chloro-1H-imidazole-5,2-diyl))bis(3-methoxypyrrolidine-5,1-diyl))bis(4,4,4-trifluoro-3,3-dimethyl-1-oxobutane-1,2-diyl))dicarbamate] as the compound, how does the EC50 read?
The EC50 was 4.9 nM.

`CC[C@H](C)[C@H](NC(=O)OC)C(=O)N1CCC[C@H]1c1nc(Br)c(-c2cc3c4c(c2)OCc2cc(-c5[nH]c([C@@H]6CCCN6C(=O)[C@@H](NC(=O)OC)[C@@H](C)CC)nc5Br)cc(c2-4)OC3)[nH]1` [Compound 24, dimethyl ((2S,2′S,3S,3′S)-((2S,2′S)-((5,10-dihydrochromeno[5,4,3-cde]chromene-2,7-diyl)bis(4-bromo-1H-imidazole-5,2-diyl))bis(pyrrolidine-2,1-diyl))bis(3-methyl-1-oxopentane-1,2-diyl))dicarbamate] was tested. Which EC50 did it give?
Its EC50 is 2.2 nM.

How did the EC50 turn out when `COC(=O)N[C@H](C(=O)N1C[C@@H](C)C[C@H]1c1nc(Cl)c(-c2cc3c4c(c2)OCc2cc(-c5[nH]c([C@@H]6C[C@H](C)CN6C(=O)[C@@H](NC(=O)OC)C(C)C)nc5Cl)cc(c2-4)OC3)[nH]1)C(C)C` [Compound 48, dimethyl ((2S,2′S)-((3S,3′S,5S,5′S)-((5,10-dihydrochromeno[5,4,3-cde]chromene-2,7-diyl)bis(4-chloro-1H-imidazole-5,2-diyl))bis(3-methylpyrrolidine-5,1-diyl))bis(3-methyl-1-oxobutane-1,2-diyl))dicarbamate] was run?
The EC50 was 4.6 nM.

How did the EC50 turn out when `COC(=O)N[C@H](C(=O)N1CC(C)(C)C[C@H]1c1nc(Cl)c(-c2cc3c4c(c2)OCc2cc(-c5[nH]c([C@@H]6CC(C)(C)CN6C(=O)[C@@H](NC(=O)OC)C(C)(C)C(F)(F)F)nc5Cl)cc(c2-4)OC3)[nH]1)C(C)(C)C(F)(F)F` [Compound 9, dimethyl ((2S,2′S)-((5S,5′S)-((5,10-dihydrochromeno[5,4,3-cde]chromene-2,7-diyl)bis(4-chloro-1H-imidazole-5,2-diyl))bis(3,3-dimethylpyrrolidine-5,1-diyl))bis(4,4,4-trifluoro-3,3-dimethyl-1-oxobutane-1,2-diyl))dicarbamate] was run?
The EC50 was 4.6 nM.

For `COC(=O)N[C@H](C(=O)N1CCC[C@H]1c1nc(C2CC2)c(-c2cc3c4c(c2)OCc2cc(-c5[nH]c([C@@H]6CCCN6C(=O)[C@@H](NC(=O)OC)C(C)C)nc5C5CC5)cc(c2-4)OC3)[nH]1)C(C)C` [Compound 17, dimethyl ((2S,2′S)-((2S,2′S)-((5,10-dihydrochromeno[5,4,3-cde]chromene-2,7-diyl)bis(4-cyclopropyl-1H-imidazole-5,2-diyl))bis(pyrrolidine-2,1-diyl))bis(3-methyl-1-oxobutane-1,2-diyl))dicarbamate], which EC50 is on record?
The EC50 was 74.5 nM.

`CC[C@H](C)[C@H](NC(=O)OC)C(=O)N1[C@H](c2nc(Cl)c(-c3cc4c5c(c3)OCc3cc(-c6[nH]c([C@@H]7C[C@@H]8CCC[C@@H]8N7C(=O)[C@@H](NC(=O)OC)[C@@H](C)CC)nc6Cl)cc(c3-5)OC4)[nH]2)C[C@@H]2CCC[C@@H]21` [Compound 36, dimethyl ((2S,2′S,3S,3′S)-((2S,2′S,3aS,3a′S,6aS,6a′S)-((5,10-dihydrochromeno[5,4,3-cde]chromene-2,7-diyl)bis(4-chloro-1H-imidazole-5,2-diyl))bis(hexahydrocyclopenta[b]pyrrole-2,1(2H)-diyl))bis(3-methyl-1-oxopentane-1,2-diyl))dicarbamate] was tested. Which EC50 did it give?
Its EC50 is 4.3 nM.

For `COC(=O)N[C@H](C(=O)N1CC2(CC2)C[C@H]1c1nc(Cl)c(-c2cc3c4c(c2)OCc2cc(-c5[nH]c([C@@H]6CC7(CC7)CN6C(=O)[C@@H](NC(=O)OC)C(C)(C)C)nc5C(C)C)cc(c2-4)OC3)[nH]1)C(C)(C)C` [Compound 82, methyl ((S)-1-((S)-6-(5-(7-(4-chloro-2-((S)-5-((S)-2-((methoxycarbonyl)amino)-3,3-dimethylbutanoyl)-5-azaspiro[2.4]heptan-6-yl)-1H-imidazol-5-yl)-5,10-dihydrochromeno[5,4,3-cde]chromen-2-yl)-4-isopropyl-1H-imidazol-2-yl)-5-azaspiro[2.4]heptan-5-yl)-3,3-dimethyl-1-oxobutan-2-yl)carbamate], which EC50 is on record?
Its EC50 is 2.6 nM.

Source: US12497408B2, “Tetracyclic compounds and methods for the treatment of Zika virus infection” (priority 2021, dated 2025)
